# pIC50: −log10 of the molar value.
# How the values were obtained:
# CYP3A4 = CYP3A4 (Homo sapiens, UniProt P08684); experiment: Inhibition of CYP3A4 at 10 uM; assay type: ADME
# [1] = target: T1, Tyrosine-protein kinase JAK3 (Homo sapiens, UniProt P52333); experiment: Inhibition of JAK3 using biotin-EQEDEPEGDYFEWLE- NH2 as substrate
# T1 sequence (P52333 whole entry): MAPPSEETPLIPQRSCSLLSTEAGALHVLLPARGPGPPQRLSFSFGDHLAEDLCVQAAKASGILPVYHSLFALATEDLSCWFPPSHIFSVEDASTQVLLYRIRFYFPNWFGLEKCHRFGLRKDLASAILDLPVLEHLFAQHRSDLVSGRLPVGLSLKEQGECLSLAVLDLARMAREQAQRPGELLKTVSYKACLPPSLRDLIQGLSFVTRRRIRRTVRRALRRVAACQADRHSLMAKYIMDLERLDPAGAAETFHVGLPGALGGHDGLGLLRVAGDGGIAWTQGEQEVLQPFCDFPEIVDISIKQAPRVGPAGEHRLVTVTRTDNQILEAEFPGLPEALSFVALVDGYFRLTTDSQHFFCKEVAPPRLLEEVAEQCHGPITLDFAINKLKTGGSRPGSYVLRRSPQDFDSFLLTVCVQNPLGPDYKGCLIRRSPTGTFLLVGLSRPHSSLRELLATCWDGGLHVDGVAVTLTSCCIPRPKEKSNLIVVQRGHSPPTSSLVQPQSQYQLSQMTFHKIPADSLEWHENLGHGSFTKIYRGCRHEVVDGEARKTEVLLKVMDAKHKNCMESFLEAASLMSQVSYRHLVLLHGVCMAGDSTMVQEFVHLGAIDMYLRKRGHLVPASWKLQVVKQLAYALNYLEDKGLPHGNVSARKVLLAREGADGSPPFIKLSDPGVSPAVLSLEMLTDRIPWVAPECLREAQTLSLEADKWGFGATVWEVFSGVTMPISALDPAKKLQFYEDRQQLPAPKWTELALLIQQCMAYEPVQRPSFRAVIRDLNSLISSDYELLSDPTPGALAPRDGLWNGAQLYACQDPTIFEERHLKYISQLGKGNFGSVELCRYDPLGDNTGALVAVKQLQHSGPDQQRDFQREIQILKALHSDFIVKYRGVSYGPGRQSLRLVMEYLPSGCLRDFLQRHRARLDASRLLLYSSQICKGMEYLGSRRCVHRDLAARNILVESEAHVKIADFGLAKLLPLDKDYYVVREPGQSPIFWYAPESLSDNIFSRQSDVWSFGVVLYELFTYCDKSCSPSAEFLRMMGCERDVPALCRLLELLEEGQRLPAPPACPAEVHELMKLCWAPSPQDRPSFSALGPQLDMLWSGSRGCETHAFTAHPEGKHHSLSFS
# [2] = Selectivity ratio of IC50 for JAK3 to IC50 for JAK2
# [3] = target: Voltage-gated inwardly rectifying potassium channel KCNH2 (Homo sapiens, UniProt Q12809); experiment: Inhibition of human hERG
# Chain of Voltage-gated inwardly rectifying potassium channel KCNH2 (Q12809 whole entry): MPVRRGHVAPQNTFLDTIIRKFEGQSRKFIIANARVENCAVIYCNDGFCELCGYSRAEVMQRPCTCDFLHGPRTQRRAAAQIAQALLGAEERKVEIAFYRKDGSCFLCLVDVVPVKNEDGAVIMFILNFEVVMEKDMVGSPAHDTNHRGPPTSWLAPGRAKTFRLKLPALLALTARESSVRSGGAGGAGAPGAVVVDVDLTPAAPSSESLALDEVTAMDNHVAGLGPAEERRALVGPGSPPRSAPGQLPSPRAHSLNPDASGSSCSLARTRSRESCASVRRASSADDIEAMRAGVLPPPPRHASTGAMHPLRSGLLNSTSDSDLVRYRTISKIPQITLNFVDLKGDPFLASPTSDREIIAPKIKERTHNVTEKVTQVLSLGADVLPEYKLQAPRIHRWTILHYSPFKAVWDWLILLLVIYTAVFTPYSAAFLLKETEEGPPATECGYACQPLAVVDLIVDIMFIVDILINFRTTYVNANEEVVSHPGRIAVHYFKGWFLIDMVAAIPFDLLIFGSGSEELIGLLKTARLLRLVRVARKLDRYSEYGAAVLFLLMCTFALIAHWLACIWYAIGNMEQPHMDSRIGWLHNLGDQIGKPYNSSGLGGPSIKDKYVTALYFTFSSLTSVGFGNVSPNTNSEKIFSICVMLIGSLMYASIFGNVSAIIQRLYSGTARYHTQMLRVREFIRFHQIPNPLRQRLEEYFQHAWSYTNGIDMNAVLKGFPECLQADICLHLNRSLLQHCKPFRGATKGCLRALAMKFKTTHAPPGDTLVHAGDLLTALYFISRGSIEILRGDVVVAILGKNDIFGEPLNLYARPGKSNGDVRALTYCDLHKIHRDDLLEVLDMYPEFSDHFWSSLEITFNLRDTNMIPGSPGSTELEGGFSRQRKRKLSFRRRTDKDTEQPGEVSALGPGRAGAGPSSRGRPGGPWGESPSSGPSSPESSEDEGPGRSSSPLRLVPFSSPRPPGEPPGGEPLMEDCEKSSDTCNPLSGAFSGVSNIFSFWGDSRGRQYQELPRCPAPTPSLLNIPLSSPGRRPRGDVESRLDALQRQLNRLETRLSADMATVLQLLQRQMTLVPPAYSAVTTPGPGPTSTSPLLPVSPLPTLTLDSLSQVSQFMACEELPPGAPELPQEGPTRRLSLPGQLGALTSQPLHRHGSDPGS
# [4] = target: T2, Tyrosine-protein kinase JAK2 (Homo sapiens, UniProt O60674); experiment: Inhibition of JAK2-mediated STAT5 phosphorylation in human HEL 92.1.7 irf1-bla cells; assay type: cell-based
# T2 sequence (O60674 whole entry): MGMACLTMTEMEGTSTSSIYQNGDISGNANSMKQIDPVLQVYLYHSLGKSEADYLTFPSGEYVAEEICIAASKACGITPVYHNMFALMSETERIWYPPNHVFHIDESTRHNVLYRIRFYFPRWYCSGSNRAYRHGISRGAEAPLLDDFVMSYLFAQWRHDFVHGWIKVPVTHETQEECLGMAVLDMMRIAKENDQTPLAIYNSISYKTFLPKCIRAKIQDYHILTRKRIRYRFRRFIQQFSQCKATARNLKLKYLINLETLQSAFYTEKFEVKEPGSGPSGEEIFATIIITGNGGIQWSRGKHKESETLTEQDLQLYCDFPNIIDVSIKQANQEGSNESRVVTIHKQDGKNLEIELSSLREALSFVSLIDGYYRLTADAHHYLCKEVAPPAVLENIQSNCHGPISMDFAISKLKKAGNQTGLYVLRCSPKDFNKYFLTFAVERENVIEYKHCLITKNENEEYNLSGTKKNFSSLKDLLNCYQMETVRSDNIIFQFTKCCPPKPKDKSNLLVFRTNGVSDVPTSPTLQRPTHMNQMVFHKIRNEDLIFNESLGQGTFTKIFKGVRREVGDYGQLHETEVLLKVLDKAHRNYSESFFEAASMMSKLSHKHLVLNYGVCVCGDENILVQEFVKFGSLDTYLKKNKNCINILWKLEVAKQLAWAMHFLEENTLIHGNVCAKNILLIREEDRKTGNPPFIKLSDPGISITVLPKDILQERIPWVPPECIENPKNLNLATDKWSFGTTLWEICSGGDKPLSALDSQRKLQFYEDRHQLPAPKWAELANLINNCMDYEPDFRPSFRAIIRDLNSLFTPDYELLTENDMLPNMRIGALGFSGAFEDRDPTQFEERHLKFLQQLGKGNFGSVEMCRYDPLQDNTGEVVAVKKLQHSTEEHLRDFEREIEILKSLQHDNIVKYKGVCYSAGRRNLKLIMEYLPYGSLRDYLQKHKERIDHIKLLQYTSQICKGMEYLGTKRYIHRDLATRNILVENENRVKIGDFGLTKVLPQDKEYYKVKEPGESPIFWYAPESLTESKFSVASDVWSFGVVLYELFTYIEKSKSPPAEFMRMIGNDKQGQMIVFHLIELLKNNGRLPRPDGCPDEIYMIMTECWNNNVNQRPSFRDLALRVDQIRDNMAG
# [5] = Metabolic stability in rat hepatocytes assessed as half life; assay type: ADME, cell-based, Liver, Hepatocyte
# [6] = target: T2, Tyrosine-protein kinase JAK2; experiment: Inhibition of JAK2 using biotin-EQEDEPEGDYFEWLE- NH2 as substrate
# [7] = Oral bioavailability in rat at 4 mg/kg; assay type: ADME, organism-based; settings: in vivo
# [8] = Plasma clearance in rat at 2 mg/kg, iv and 4 mg/kg, po; assay type: ADME, organism-based
# [9] = Lipophilicity, log D of the compound at pH 7.4; assay type: physicochemical; settings: buffer
# [10] = target: Non-receptor tyrosine-protein kinase TYK2 (Homo sapiens, UniProt P29597); experiment: Inhibition of TYK2
# [11] = target: Tyrosine-protein kinase JAK1 (Homo sapiens, UniProt P23458); experiment: Inhibition of JAK1
# [12] = target: T2, Tyrosine-protein kinase JAK2; experiment: Inhibition of JAK2
# [13] = Aqueous solubility of the compound; assay type: physicochemical; settings: buffer
# [14] = target: T1, Tyrosine-protein kinase JAK3; experiment: Inhibition of JAK3
# [15] = target: T2, Tyrosine-protein kinase JAK2; experiment: Competitive inhibition of JAK2 in the presence of 15 uM ATP
# [16] = Oral bioavailability in rat at 2 mg/kg; assay type: ADME, organism-based; settings: in vivo
# [17] = target: T2, Tyrosine-protein kinase JAK2; experiment: Competitive inhibition of JAK2 in the presence of 2 mM ATP
# CYP2C9 = CYP2C9 (Homo sapiens, UniProt P11712); experiment: Inhibition of CYP2C9 at 10 uM; assay type: ADME
# Chain of CYP2C9 (P11712 whole entry): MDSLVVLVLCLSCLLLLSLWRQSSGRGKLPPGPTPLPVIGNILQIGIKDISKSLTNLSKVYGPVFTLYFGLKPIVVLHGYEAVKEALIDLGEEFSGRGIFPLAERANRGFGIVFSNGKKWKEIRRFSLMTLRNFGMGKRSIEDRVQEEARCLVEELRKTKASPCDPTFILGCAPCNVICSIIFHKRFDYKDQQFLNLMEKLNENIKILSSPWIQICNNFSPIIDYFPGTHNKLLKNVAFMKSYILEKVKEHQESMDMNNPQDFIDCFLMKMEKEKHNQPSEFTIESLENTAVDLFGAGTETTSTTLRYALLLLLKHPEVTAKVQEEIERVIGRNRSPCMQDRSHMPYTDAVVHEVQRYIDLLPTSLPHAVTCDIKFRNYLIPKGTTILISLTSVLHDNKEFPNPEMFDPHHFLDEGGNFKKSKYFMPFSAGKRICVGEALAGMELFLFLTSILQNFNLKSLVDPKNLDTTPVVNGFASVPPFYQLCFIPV
# [18] = Clearance in rat at 1 mg/kg, iv; assay type: ADME, organism-based; set-up: dose 1 mg/kg, route intravenous; settings: in vivo
# [19] = Volume of distribution at steady state in rat at 1 mg/kg, iv; assay type: ADME, organism-based; set-up: dose 1 mg/kg, route intravenous; settings: in vivo, read-out: Vdss
# Cytochrome P450 2C9 = Cytochrome P450 2C9 (Homo sapiens, UniProt P11712); experiment: Inhibition of CYP2C9; assay type: ADME
# Chain of Cytochrome P450 2C9 (P11712 whole entry): as above
# [20] = Volume of distribution at steady state in dog at 0.5 mg/kg, iv; assay type: ADME, organism-based, Canis lupus familiaris; set-up: dose 0.5 mg/kg, route intravenous; settings: in vivo, read-out: Vdss
# Canis familiaris [21] = experiment: Dose normalized AUC in dog at 0.5 mg/kg, iv; assay type: ADME, organism-based, Canis lupus familiaris; set-up: dose 0.5 mg/kg, route intravenous; settings: in vivo
# Rhesus monkey [22] = experiment: Dose normalized AUC in monkey at 1 mg/kg, po; assay type: ADME, organism-based, Macaca mulatta; set-up: dose 1 mg/kg, route oral; settings: in vivo
# [23] = target: Potassium voltage-gated channel subfamily E member 1 (Homo sapiens, UniProt P15382); experiment: Inhibition of Iks channel
# [24] = target: T3, Tyrosine-protein kinase JAK2 (Homo sapiens, UniProt O60674, V617F); experiment: Inhibition of JAK2 V617F mutant-mediated STAT5 phosphorylation in mouse BAF3 cells; assay type: cell-based
# T3 sequence (O60674 whole entry V617F): as the sequence (O60674 whole entry) above, with V617F counted along it
# [25] = Volume of distribution at steady state in monkey at 0.5 mg/kg, iv; assay type: ADME, organism-based, Macaca mulatta; set-up: dose 0.5 mg/kg, route intravenous; settings: rhesus monkey, in vivo, read-out: Vdss
# Mus musculus [26] = species on record: Mus musculus; experiment: Prevention of darbepoetin-induced increase in spleen weight in C57/BL6 mouse PV model; assay type: functional, organism-based; settings: C57Bl/6
# [27] = Tmax in dog at 1 mg/kg, po; assay type: ADME, organism-based, Canis lupus familiaris; set-up: dose 1 mg/kg, route oral; settings: in vivo
# [28] = Half life in rat at 1 mg/kg, iv; assay type: ADME, organism-based; set-up: dose 1 mg/kg, route intravenous; settings: in vivo
# [29] = Plasma clearance in monkey at 0.5 mg/kg, iv; assay type: ADME, organism-based, Macaca mulatta; set-up: dose 0.5 mg/kg, route intravenous; settings: rhesus monkey
# Cytochrome P450 2D6 = Cytochrome P450 2D6 (Homo sapiens, UniProt P10635); experiment: Inhibition of CYP2D6; assay type: ADME
# Chain of Cytochrome P450 2D6 (P10635 whole entry): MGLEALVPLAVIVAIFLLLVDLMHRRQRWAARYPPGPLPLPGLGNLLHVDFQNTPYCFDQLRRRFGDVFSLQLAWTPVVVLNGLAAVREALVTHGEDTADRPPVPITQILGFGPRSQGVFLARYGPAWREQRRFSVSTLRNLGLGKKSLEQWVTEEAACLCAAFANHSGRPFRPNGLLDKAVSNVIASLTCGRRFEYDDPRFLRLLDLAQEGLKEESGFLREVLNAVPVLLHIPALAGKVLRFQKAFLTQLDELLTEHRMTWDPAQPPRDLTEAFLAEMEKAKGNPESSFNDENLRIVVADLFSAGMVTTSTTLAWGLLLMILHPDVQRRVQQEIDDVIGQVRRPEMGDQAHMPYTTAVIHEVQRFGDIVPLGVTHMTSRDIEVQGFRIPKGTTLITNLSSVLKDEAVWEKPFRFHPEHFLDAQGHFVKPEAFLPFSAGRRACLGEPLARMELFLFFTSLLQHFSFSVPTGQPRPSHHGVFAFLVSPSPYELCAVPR
# [30] = target: Sodium channel protein type 5 subunit alpha (Homo sapiens, UniProt Q14524); experiment: Inhibition of NaV1.5
# Mus musculus [31] = experiment: Reduction in pSTAT5 concentration in po dosed darbepoetin-stimulated C57B1/6 mouse
# [32] = target: T3, Tyrosine-protein kinase JAK2; experiment: Inhibition of JAK2 V617F mutant
# [33] = Half life in dog at 0.5 mg/kg, iv; assay type: ADME, organism-based, Canis lupus familiaris; set-up: dose 0.5 mg/kg, route intravenous; settings: in vivo
# [34] = Plasma clearance in dog at 0.5 mg/kg, iv; assay type: ADME, organism-based, Canis lupus familiaris; set-up: dose 0.5 mg/kg, route intravenous
# [35] = Cmax in rat at 2 mg/kg, po; assay type: ADME, organism-based; set-up: dose 2 mg/kg, route oral; settings: in vivo
# [36] = Cmax in dog at 1 mg/kg, po; assay type: ADME, organism-based, Canis lupus familiaris; set-up: dose 1 mg/kg, route oral; settings: in vivo
# [37] = Tmax in monkey at 1 mg/kg, po; assay type: ADME, organism-based, Macaca mulatta; set-up: dose 1 mg/kg, route oral; settings: rhesus monkey, in vivo
# [38] = target: Voltage-dependent L-type calcium channel subunit alpha-1C (Rattus norvegicus, UniProt P22002); experiment: Inhibition of rat CaV1.2
# [39] = Oral bioavailability in dog at 1 mg/kg; assay type: ADME, organism-based, Canis lupus familiaris; settings: in vivo
# [40] = Tmax in rat at 2 mg/kg, po; assay type: ADME, organism-based; set-up: dose 2 mg/kg, route oral; settings: in vivo
# Canis familiaris [41] = experiment: Dose normalized AUC in dog at 1 mg/kg, po; assay type: ADME, organism-based, Canis lupus familiaris; set-up: dose 1 mg/kg, route oral; settings: in vivo
# Cytochrome P450 3A4 = Cytochrome P450 3A4 (Homo sapiens, UniProt P08684); experiment: Inhibition of CYP3A4; assay type: ADME
# Chain of Cytochrome P450 3A4 (P08684 whole entry): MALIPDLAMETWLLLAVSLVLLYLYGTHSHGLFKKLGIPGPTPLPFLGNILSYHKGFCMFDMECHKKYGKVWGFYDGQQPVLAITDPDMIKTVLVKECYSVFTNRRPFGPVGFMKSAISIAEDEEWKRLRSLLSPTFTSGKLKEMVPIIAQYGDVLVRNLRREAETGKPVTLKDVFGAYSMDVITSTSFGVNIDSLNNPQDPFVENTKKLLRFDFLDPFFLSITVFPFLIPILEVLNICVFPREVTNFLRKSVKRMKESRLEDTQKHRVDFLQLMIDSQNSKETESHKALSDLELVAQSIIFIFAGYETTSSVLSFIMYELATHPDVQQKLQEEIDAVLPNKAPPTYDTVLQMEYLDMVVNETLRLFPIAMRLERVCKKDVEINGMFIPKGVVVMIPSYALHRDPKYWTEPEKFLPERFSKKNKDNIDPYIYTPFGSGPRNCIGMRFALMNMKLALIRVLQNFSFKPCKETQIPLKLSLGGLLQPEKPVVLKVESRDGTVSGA
# [42] = Half life in monkey at 0.5 mg/kg, iv; assay type: ADME, organism-based, Macaca mulatta; set-up: dose 0.5 mg/kg, route intravenous; settings: rhesus monkey, in vivo
# [43] = Plasma clearance in rat at 1 mg/kg, iv; assay type: ADME, organism-based; set-up: dose 1 mg/kg, route intravenous
# Rhesus monkey [44] = experiment: Dose normalized AUC in monkey at 0.5 mg/kg, iv; assay type: ADME, organism-based, Macaca mulatta; set-up: dose 0.5 mg/kg, route intravenous; settings: in vivo
# [45] = Cmax in monkey at 1 mg/kg, po; assay type: ADME, organism-based, Macaca mulatta; set-up: dose 1 mg/kg, route oral; settings: rhesus monkey, in vivo
# Rattus norvegicus [46] = experiment: Dose normalized AUC in rat at 2 mg/kg, po; assay type: ADME, organism-based; set-up: dose 2 mg/kg, route oral; settings: in vivo
# [47] = Oral bioavailability in monkey at 1 mg/kg; assay type: ADME, organism-based, Macaca mulatta; settings: rhesus monkey, in vivo
# Rattus norvegicus [48] = experiment: Dose normalized AUC in rat at 1 mg/kg, iv; assay type: ADME, organism-based; set-up: dose 1 mg/kg, route intravenous; settings: in vivo
# Mus musculus [49] = species on record: Mus musculus; experiment: Prevention of darbepoetin-induced elevation of hematocrit in C57/BL6 mouse PV model; assay type: functional, organism-based; settings: C57Bl/6
# Chain of CYP3A4 (P08684 whole entry): as above
smiles,measurement,setting,value
C[C@H](Nc1ncc(C(N)=O)c2[nH]c3cc(-c4cnn(C)c4)ccc3c12)C(C)(C)C,inhibition at 10 µM,CYP3A4,49%
same,pIC50,[1],6.46
same,Ratio IC50,[2],> 50
same,pIC50,[3],4.54
same,pIC50,[4],6.43
same,half-life,[5],0.25 h
same,pIC50,[6],8.30
O=c1[nH]ccc2c3[nH]c(-c4ccccc4Cl)nc3c3ccc(F)cc3c12,bioavailability,[7],100%
same,clearance,[8],5.4 mL/min/kg
same,logD,[9],3.6
same,pIC50,[10],8.15
same,pIC50,[11],8.70
same,Ratio IC50,[2],26
same,pIC50,[12],8.52
same,solubility,[13],< 2 µM
same,pIC50,[14],7.11
CCNc1ncc(C(N)=O)c2[nH]c3ccc(F)cc3c12,logD,[9],2
same,Ratio IC50,[2],30
same,pIC50,[15],6.64
same,pIC50,[12],6.64
same,bioavailability,[16],87%
same,solubility,[13],6 µM
same,pIC50,[14],5.17
same,pIC50,[17],< 4.82
same,pIC50,[6],6.64
NC(=O)c1cnc(NC(C2CC2)C2CC2)c2c1[nH]c1cc(-c3cnc(N)nc3)ccc12,inhibition at 10 µM,CYP3A4,55%
same,pIC50,[1],6.66
same,inhibition at 10 µM,CYP2C9,35%
same,Ratio IC50,[2],> 50
same,clearance,[18],21 mL/min/kg
same,pIC50,[3],5.09
same,pIC50,[4],7.54
same,pIC50,[6],9.00
NC(=O)c1cnc(N[C@H](C2CC2)C(F)(F)F)c2c1[nH]c1cc(-c3cnc(N)nc3)ccc12,inhibition at 10 µM,CYP3A4,30%
same,Vd,[19],2.5 L/kg
same,pIC50,Cytochrome P450 2C9,< 4.12
same,Vd,[20],6.1 L/kg
same,AUC/dose,Canis familiaris [21],2.4 µM·h/mg/kg
same,AUC/dose,Rhesus monkey [22],3.4 µM·h/mg/kg
same,pIC50,[23],< 5.00
same,pIC50,[24],7.96
same,Vd,[25],4.7 L/kg
same,Activity,Mus musculus [26],Dose-dependent effect
same,Tmax,[27],5.1 h
same,half-life,[28],4.5 h
same,clearance,[29],7.4 mL/min/kg
same,pIC50,Cytochrome P450 2D6,< 4.12
same,pIC50,[30],< 4.52
same,pIC50,Mus musculus [31],5.92
same,pIC50,[32],9.40
same,half-life,[33],5.2 h
same,inhibition at 10 µM,CYP2C9,34%
same,clearance,[34],18 mL/min/kg
same,Cmax,[35],600 nM
same,Cmax,[36],300 nM
same,Tmax,[37],6 h
same,bioavailability,[16],67%
same,pIC50,[38],< 4.52
same,clearance,[18],7 mL/min/kg
same,bioavailability,[39],120%
same,Tmax,[40],6 h
same,AUC/dose,Canis familiaris [41],2.5 µM·h/mg/kg
same,pIC50,Cytochrome P450 3A4,< 4.12
same,pIC50,[4],7.60
same,half-life,[42],7.3 h
same,clearance,[43],7.4 mL/min/kg
same,AUC/dose,Rhesus monkey [44],5.2 µM·h/mg/kg
same,Cmax,[45],200 nM
same,AUC/dose,Rattus norvegicus [46],3.4 µM·h/mg/kg
same,pIC50,[6],9.10
same,bioavailability,[47],66%
same,AUC/dose,Rattus norvegicus [48],5.3 µM·h/mg/kg
same,Activity,Mus musculus [49],Dose-dependent effect

# — ChEMBL document CHEMBL1833803, “Discovery of 1-amino-5H-pyrido[4,3-b]indol-4-carboxamide inhibitors of Janus kinase 2 (JAK2) for the treatment of myeloproliferative disorders” (J Med Chem, 2011)
